# Data taken from patent US7078177B2, “Method of assaying for agonists or antagonist of Dynorphin A binding to the MAS receptor” (AstraZeneca AB, priority 2000, dated 2006).
# Ends that are not written are not given here.
# What was measured:
# [1] = non-thermal and mechanical analgesia, administered ICV; cited from earlier work
# MAS receptor = test: FLIPR calcium mobilization assay, HEK-293 cells expressing MAS receptor; type: cell-based, rat and human; settings: HEK-293 cells expressing the clone MAS receptor; Fluo-3
# Description: HEK-293 cells were transfected with a mammalian expression construct coding for the rat and human MAS receptor (pcDNA 3.1 vector, Invitrogen) using the Superfect reagent (Qiagen). A stable receptor pool of MAS receptor was developed by applying a selection marker (G418, 0.9 mg/ml) and the cells were maintained in this selection medium. The presence of mRNA specific for clone MAS receptor was assessed by Northern blot analysis and by the reverse transcriptase polymerase chain reaction (RT-PCR).
# (§1) A functional assay was performed with FLIPR (Fluorescent Imaging Plate Reader, Molecular Devices) using the fluorescent calcium indicator Fluo-3 (Molecular Probes) on a 96 well platform. HEK-293 cells, either expressing the receptor or wild type cells, were loaded with Fluo-3 as follows. Stable HEK-293 clones expressing rat and human MAS receptor or parental cells were plated at a density of 10,000 cells/well in a 96 well plate. On the day of the experiment, the MAS receptor cells were loaded with fluorescent solution (Dulbecco's modified medium with 10% fetal bovine serum containing 4 μM Fluo-3 and 20% pluronic acid). The cells were incubated at 37° C. for one hour in a humidified chamber. Following the incubation step, cells were washed five times in Hanks' with 20 mM Hepes and 0.1% BSA (pH 7.4). The cells were analyzed using the FLIPR system to measure the mobilization of intracellular calcium in response to different compounds.
# parental HEK-293 cells = test: FLIPR calcium mobilization assay, parental (non-transfected) HEK-293 cells; type: cell-based; settings: wild type (parental, non-transfected) HEK-293 cells; Fluo-3
# Description: as §1
# [2] = test system: mouse peritoneal macrophages; settings: administered to mice; not inhibited by naloxone; cited from earlier work
Substance,analgesia [1],calcium response (FLIPR signal) (MAS receptor),calcium response (FLIPR signal) (parental HEK-293 cells),phagocytosis [2]
YGGFLRRIRPKLKWDNQ-COOH (YGGFLRRIRPKLKWDNQ-OH) [Dynorphin A],moderately effective,consistently elicited signals,not in the wild type cells,enhanced phagocytosis
"YGGFLRRIRPKLKWDNQ-COOH or NH2 (not fully specified; printed as YGGFLRRIRPKLKWDNQ-COOH or NH2) [Dynorphin A-NH2, C-terminal amide analogue of Dynorphin A]",,consistently elicited signals,not in the wild type cells,
"Dynorphin A 1-13: analogue (fragment 1-13) of Dynorphin A (YGGFLRRIRPKLK; Dynorphin A(1-13); UniProt P01213 207-219, looked up, fragment)",,consistently elicited signals,not in the wild type cells,
